Where “and” joins values, the source holds several entries; their conditions need not be identical. Equal values may be shown once.
What was measured:
5HT2A = 5HT2A (Homo sapiens, UniProt P28223); assay: β-arrestin2 recruitment (Tango); assay type: cell-based; conditions: single replicate values
[1] = tested on: serotonin receptor (subtype not given; reference agonist serotonin); assay: β-arrestin2 recruitment (Tango), agonist activity, source data Fig_S10m; assay type: cell-based, human; conditions: drug alone
[2] = molecular target: DRD2 (D2 long receptor) wild-type (Homo sapiens, UniProt P14416); assay: Radioligand competition binding, [3H]-N-methylspiperone, HEK293T membranes; conditions: DRD2; [3H]-methylspiperone (0.8-1.0 nM); read-out: Ki
[3] = molecular target: T1, DRD4 (D4.4 variant) wild-type (Homo sapiens, UniProt P21917); assay: Radioligand competition binding, [3H]-N-methylspiperone; conditions: DRD4; [3H]-methylspiperone (0.8-1.0 nM); read-out: Ki
T1 sequence (P21917 1-419): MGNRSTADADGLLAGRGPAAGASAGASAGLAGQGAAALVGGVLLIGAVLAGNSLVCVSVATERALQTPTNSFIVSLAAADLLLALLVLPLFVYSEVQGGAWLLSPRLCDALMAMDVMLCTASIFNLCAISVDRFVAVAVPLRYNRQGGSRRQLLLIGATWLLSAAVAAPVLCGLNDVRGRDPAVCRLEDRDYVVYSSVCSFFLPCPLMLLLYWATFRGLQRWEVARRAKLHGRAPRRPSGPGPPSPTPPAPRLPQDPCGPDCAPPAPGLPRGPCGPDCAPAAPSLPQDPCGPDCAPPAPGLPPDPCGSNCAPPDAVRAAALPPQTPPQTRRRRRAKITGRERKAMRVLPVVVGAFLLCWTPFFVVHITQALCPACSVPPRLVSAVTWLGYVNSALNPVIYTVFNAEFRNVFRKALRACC

[4] = tested on: serotonin receptor of Fig_S10i (subtype not given); assay: β-arrestin2 recruitment (Tango), agonist activity, source data Fig_S10i; assay type: cell-based, human; conditions: drug alone
DRD3 F1063.28A = DRD3 F1063.28A (Homo sapiens, UniProt P35462, F106A); assay: biochemical; assay type: binding
DRD2 F1103.28L = molecular target: T2, DRD2 F1103.28L (Homo sapiens, UniProt P14416, F110L); assay: Gαi/o-mediated cAMP inhibition (GloSensor), mutant; assay type: cell-based
T2 construct: expressed in transfected cells; host or cells: HEK293T (ATCC CRL-11268)

DRD2 F1103.28A = DRD2 F1103.28A (Homo sapiens, UniProt P14416, F110A); assay: Gαi/o-mediated cAMP inhibition (GloSensor), mutant; assay type: cell-based; parameters: expressed in transfected cells; host or cells: HEK293T (ATCC CRL-11268)
DRD2 (D2 long receptor) = DRD2 (D2 long receptor) (Homo sapiens, UniProt P14416); assay: β-arrestin2 recruitment (Tango), HTLA cells; assay type: cell-based; conditions: for response, concentration-response data point (replicates): Fig_S10a, drug alone
Sequence of DRD2 (D2 long receptor) (P14416 whole entry): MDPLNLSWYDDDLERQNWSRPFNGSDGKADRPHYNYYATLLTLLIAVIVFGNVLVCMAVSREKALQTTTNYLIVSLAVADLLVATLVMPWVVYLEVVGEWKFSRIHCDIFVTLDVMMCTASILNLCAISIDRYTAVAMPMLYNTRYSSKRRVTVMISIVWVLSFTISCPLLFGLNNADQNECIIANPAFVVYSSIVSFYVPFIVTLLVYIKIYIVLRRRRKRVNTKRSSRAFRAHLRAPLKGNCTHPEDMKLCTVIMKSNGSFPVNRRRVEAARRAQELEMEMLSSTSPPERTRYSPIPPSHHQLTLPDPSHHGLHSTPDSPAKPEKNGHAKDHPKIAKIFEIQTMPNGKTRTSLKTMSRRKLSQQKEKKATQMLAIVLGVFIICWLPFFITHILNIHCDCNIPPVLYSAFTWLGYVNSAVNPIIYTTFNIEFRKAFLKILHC

Sequence of 5HT2A (P28223 whole entry): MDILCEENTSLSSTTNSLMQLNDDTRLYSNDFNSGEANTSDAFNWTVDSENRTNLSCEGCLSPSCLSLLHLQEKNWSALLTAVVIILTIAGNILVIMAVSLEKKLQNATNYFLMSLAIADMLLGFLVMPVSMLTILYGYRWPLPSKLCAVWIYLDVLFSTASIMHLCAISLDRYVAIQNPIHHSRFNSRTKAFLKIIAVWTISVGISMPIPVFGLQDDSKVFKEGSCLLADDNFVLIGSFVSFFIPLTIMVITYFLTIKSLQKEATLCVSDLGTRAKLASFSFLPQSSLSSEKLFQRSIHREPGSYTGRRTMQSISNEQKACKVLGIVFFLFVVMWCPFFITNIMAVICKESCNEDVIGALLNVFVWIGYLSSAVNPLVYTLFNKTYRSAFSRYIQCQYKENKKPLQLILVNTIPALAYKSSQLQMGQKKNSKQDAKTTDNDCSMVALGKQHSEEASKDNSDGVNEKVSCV
T2 sequence (P14416 whole entry F110L): as the sequence (P14416 whole entry) above, with F110L counted along it
Sequence of DRD2 (D2 long receptor) wild-type (P14416 whole entry): as the sequence (P14416 whole entry) above
Sequence of DRD3 F1063.28A (P35462 whole entry F106A): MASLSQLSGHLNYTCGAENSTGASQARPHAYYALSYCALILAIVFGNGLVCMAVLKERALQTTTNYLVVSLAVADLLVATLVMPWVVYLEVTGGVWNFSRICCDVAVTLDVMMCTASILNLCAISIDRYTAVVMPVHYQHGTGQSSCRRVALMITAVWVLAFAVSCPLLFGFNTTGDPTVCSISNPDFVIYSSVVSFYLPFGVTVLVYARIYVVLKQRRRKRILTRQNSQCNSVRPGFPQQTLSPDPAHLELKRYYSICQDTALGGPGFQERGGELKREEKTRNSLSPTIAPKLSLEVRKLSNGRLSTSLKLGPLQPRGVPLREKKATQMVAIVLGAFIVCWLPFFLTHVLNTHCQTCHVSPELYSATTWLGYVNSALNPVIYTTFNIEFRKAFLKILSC
Sequence of DRD2 F1103.28A (P14416 whole entry F110A): as the sequence (P14416 whole entry) above, with F110A counted along it

CCOc1cccc2cc([C@@H](C)NCC3(O)CCCCC3)oc12 [O4RE6]
Fig_S10k dose-response, drug alone (agonist mode), β-arrestin2 recruitment (5HT2A; Log[Drug] -9.52): -0.5503 and 0.3742 (2×) and -0.2437 and 18.2855 and 12.0983 and 1.862 and 3.213 and 3.608
Fig_S10k dose-response, drug alone (agonist mode), β-arrestin2 recruitment (5HT2A; Log[Drug] -10): 0.4035 and 2.4358 and 3.331 and 0.1365 and -1.683 and 9.281 and 2.751 and 3.406 and 1.477
Fig_S10k dose-response, drug alone (agonist mode), β-arrestin2 recruitment (5HT2A; Log[Drug] -10.52): -0.4916 and 0.9758 and -0.7997 and 1.29 and 4.65 and 10.4637 and 6.306 and 3.973 and 2.054
Fig_S10k dose-response, drug alone (agonist mode), β-arrestin2 recruitment (5HT2A; Log[Drug] -11): 2.45 and 2.135 and 3.331 and -1.706 and -2.372 and 0.351 and 0.3319 and 2.848 and 1.106
Fig_S10k dose-response, drug alone (agonist mode), β-arrestin2 recruitment (5HT2A; Log[Drug] -11.52): 0.3302 and 0.9611 and 1.255 and 6.574 and 5.31 and 2.18 and 0.7408 and 1.698 and 1.477
Fig_S10k dose-response, drug alone (agonist mode), β-arrestin2 recruitment (5HT2A; Log[Drug] -12): 0.3962 and 4.798 and 3.859 and -0.7864 and -1.57 and 2.356 and 1.337 and 0.7456 and 3.045
response, Fig_S10m, replicate values ([1]; Log[Drug] -10): 2.7529 and -0.4377 and -1.97 and -0.5261 and 1.876 and -0.04315 and 3.796 and 2.966 and 1.035
response, Fig_S10m, replicate values ([1]; Log[Drug] -10.52): 0.7688 and 0.004826 and -2.114 and 0.954 and 0.8686 and -0.8567 and -0.09082 and -0.6687 and 2.414
response, Fig_S10m, replicate values ([1]; Log[Drug] -11): 1.778 and -1.268 and 4.058 and 1.198 and 1.567 and 2.185 and -0.6818 and -1.429 and -2.744
response, Fig_S10m, replicate values ([1]; Log[Drug] -11.52): -1.448 and 1.084 and -0.9329 and 1.724 and -0.9384 and 3.221 and 2.656 and 0.1211 and -2.648
response, Fig_S10m, replicate values ([1]; Log[Drug] -12): 3.008 and 0.9208 and 2.0444 and 1.398 and -0.9127 and 1.032 and 3.604 and 5.24 and 4.003
Ki [2]: 690 nM
Ki [3]: > 10000 nM
response, single replicates of the concentration-response curve ([4]; Log[Drug] -11.52): 7.932 and 1.922 and 1.39 and -3.959 and 2.237 and 14.8084 and -5.287 and -16.0867 and 8.333
response, single replicates of the concentration-response curve ([4]; Log[Drug] -12): 7.248 and 11.8909 and -3.039 and -4.844 and 11.7663 and -11.164 and 10.085 and 0.6399 and 4.277
Ki (DRD3 F1063.28A): 1050 nM
EC50 (DRD2 F1103.28L; DRD2 F1103.28L (b138 head prints DRD2 F1063.28L)): 1.24 ± 0.75 nM
Emax (DRD2 F1103.28L; read-out: Emax relative to quinpirole response, DRD2 F1103.28L): 56.4%
EC50 (DRD2 F1103.28A): > 10000 nM
β-arrestin2 recruitment agonist activity (DRD2 (D2 long receptor); DRD2, Tango): full agonist
EC50 (DRD2 (D2 long receptor); DRD2, β-arrestin2 recruitment (Tango), read-out: EC50 ± SEM): 48.8 ± 9.47 nM
response, concentration-response data point (replicates) (DRD2 (D2 long receptor); Log[Drug] -5): 104.045 and 116.205 and 96.7104 and 116.434 and 93.993 and 105.729 and 95.4582 and 106.414 and 85.5052
response, concentration-response data point (replicates) (DRD2 (D2 long receptor); Log[Drug] -5.52): 89.1788 and 85.4445 and 90.8217 and 84.5796 and 80.0855 and 101.122 and 96.0613 and 81.9697 and 99.3385
response, concentration-response data point (replicates) (DRD2 (D2 long receptor); Log[Drug] -6): 82.8973 and 82.5495 and 79.2486 and 94.3704 and 78.2631 and 78.6908 and 80.3531 and 91.2175 and 73.5194
response, concentration-response data point (replicates) (DRD2 (D2 long receptor); Log[Drug] -6.52): 72.8482 and 85.473 and 74.6038 and 82.6009 and 103.942 and 82.378 and 70.1593 and 68.4699 and 74.397
response, concentration-response data point (replicates) (DRD2 (D2 long receptor); Log[Drug] -7): 71.4846 and 69.3009 and 62.1089 and 68.8602 and 55.9009 and 59.7861 and 54.6819 and 54.8285 and 54.3284
response, concentration-response data point (replicates) (DRD2 (D2 long receptor); Log[Drug] -7.52): 50.7715 and 50.9759 and 58.0792 and 57.6214 and 43.2407 and 45.9376 and 55.9749 and 62.7315 and 56.5853
response, concentration-response data point (replicates) (DRD2 (D2 long receptor); Log[Drug] -8): 39.7841 and 36.3747 and 29.4664 and 31.1292 and 29.8397 and 30.2988 and 27.2382 and 26.622 and 26.0732
response, concentration-response data point (replicates) (DRD2 (D2 long receptor); Log[Drug] -8.52): 13.2168 and 14.3867 and 13.161 and 13.9303 and 10.9069 and 10.856 and 10.5462 and 11.4912 and 11.2421
response, concentration-response data point (replicates) (DRD2 (D2 long receptor); Log[Drug] -9): 7.123 and 6.617 and 6.837 and 5.043 and 6.064 and 6.895 and 5.588 and 6.122 and 5.826
response, concentration-response data point (replicates) (DRD2 (D2 long receptor); Log[Drug] -11): 5.0524
response, concentration-response data point (replicates) (DRD2 (D2 long receptor); Log[Drug] -11.52): 4.975 and 5.004 and 4.993 and 4.845 and 4.81 and 4.615 and 4.945 and 4.7318 and 4.6555
response, concentration-response data point (replicates) (DRD2 (D2 long receptor); Log[Drug] -12): 4.9053 and 4.975 and 5.325 and 4.582 and 4.593 and 4.629 and 5.065 and 4.845 and 4.581
Emax (DRD2 (D2 long receptor); HTLA, read-out: Emax relative to quinpirole response, DRD2, Tango): 99.6%
β-arrestin2 recruitment response at DRD2 (source data, replicate values) (DRD2 (D2 long receptor); Log[Drug] -5): 73.5777 and 57.7969 and 60.7943 and 65.7822 and 71.9755 and 71.4753 and 62.0106
β-arrestin2 recruitment response at DRD2 (source data, replicate values) (DRD2 (D2 long receptor); Log[Drug] -5.52): 50.6787 and 47.7474 and 41.401 and 56.0167 and 52.8546 and 51.367 and 55.6817
β-arrestin2 recruitment response at DRD2 (source data, replicate values) (DRD2 (D2 long receptor); Log[Drug] -6): 39.3966 and 41.1099 and 37.2084 and 41.7585 and 38.5021 and 38.079 and 42.2149
β-arrestin2 recruitment response at DRD2 (source data, replicate values) (DRD2 (D2 long receptor); Log[Drug] -6.52): 17.548 and 17.9218 and 22.2395 and 30.2893 and 22.7451 and 19.4102 and 21.7916
β-arrestin2 recruitment response at DRD2 (source data, replicate values) (DRD2 (D2 long receptor); Log[Drug] -7): 9.564 and 7.739 and 7.708 and 7.415 and 7.649 and 7.113 and 9.501
β-arrestin2 recruitment response at DRD2 (source data, replicate values) (DRD2 (D2 long receptor); Log[Drug] -7.52): 5.75 and 5.841 and 5.282 and 5.619 and 6.782 and 5.749 and 5.8801
β-arrestin2 recruitment response at DRD2 (source data, replicate values) (DRD2 (D2 long receptor); Log[Drug] -8): 5.434 and 5.45 and 5.389 and 5.042 and 5.329 and 5.148 and 5.345
β-arrestin2 recruitment response at DRD2 (source data, replicate values) (DRD2 (D2 long receptor); Log[Drug] -8.52): 5.277 and 5.01 and 4.9419 and 4.98 and 5.0858 and 5.308 and 5.178
β-arrestin2 recruitment response at DRD2 (source data, replicate values) (DRD2 (D2 long receptor); Log[Drug] -9): 5.4097 and 5.385 and 5.128 and 4.863 and 4.947 and 4.805 and 4.8829
β-arrestin2 recruitment response at DRD2 (source data, replicate values) (DRD2 (D2 long receptor); Log[Drug] -9.52): 5.139 and 4.887 and 4.831 and 4.75 and 5.079 and 5.123 and 4.823
β-arrestin2 recruitment response at DRD2 (source data, replicate values) (DRD2 (D2 long receptor); Log[Drug] -10): 5.431 and 4.786 and 4.659 and 4.856 and 4.756 and 4.79 and 4.8682
β-arrestin2 recruitment response at DRD2 (source data, replicate values) (DRD2 (D2 long receptor); Log[Drug] -10.52): 5.022 and 4.798 and 4.776 and 4.763 and 4.86 and 4.945 and 4.841
β-arrestin2 recruitment response at DRD2 (source data, replicate values) (DRD2 (D2 long receptor); Log[Drug] -11): 4.915 and 4.765 and 4.615 and 4.7302 and 4.774 and 4.749 and 4.971
β-arrestin2 recruitment response at DRD2 (source data, replicate values) (DRD2 (D2 long receptor); Log[Drug] -11.52): 4.946 and 4.662 and 4.627 and 4.695 and 4.751 and 4.656 and 4.732

Source: publication PMC7044277 (Nature Communications, 2020)
